Source: patent publication US20250163050A1, “CRYSTALLINE (+)-TETRABENAZINE” (Foresee Pharmaceuticals Co., Ltd., priority 2022, published 2025)
Values after ≈ are worked out from the molar mass of the structure shown. Where two headings read alike, the source gives them in different places.

How the values were obtained:
[1] = compared with TBZ; cited from earlier work
dopamine receptors = conditions: cited from earlier work
[2] = patients, dose escalation; cited from earlier work
[3] = in vivo; cited from earlier work
[4] = Solubility in PBS with 0.2% (w/v) tween 20 at 37° C.; assay type: physicochemical; conditions: for solubility: PBS with 0.2% (w/v) tween 20, 37° C., overnight
Procedure: 20 mg Form 2 crystalline (+)-TBZ was dispersed into 1 ml PBS with 0.2% (w/v) tween 20. Then, this excessively saturated suspension was stirred overnight at 37° C. 0.8 ml of former suspension was transferred into 1.5 mL Eppendorf centrifuge tube. The undissolved solid was spun down using bench-top centrifuge at the rotation of 14000 rpm for 5 min.
• Flow rate: 0.3 mL/min • Column temp: 55° C. • Injection volume: 2 uL • Detection: 220 nm • Run time: 10 min • (+)-TBZ retention time: ˜3.5 min

[5] = Metabolism in rat liver microsome (RLM); assay type: in vitro ADME
Procedure: Rat liver microsome (RLM) study was conducted to investigate the generation of pharmaceutically active metabolites of Form 2 (+)-TBZ and TBZ racemate.

[6] = Powder flow property, angle of repose (USP 1174); assay type: physicochemical
Source text: The present application enables the production of crystalline (+)-TBZ in various particle size ranges and crystal morphology (e.g. rod-shaped crystals and more symmetric crystals). As API powder/crystalline flowability can be critical in the manufacture of a drug product, flow property of crystalline (+)-TBZ in the present application was investigated.

COc1cc2c(cc1OC)[C@H]1C[C@@H](O)[C@H](CC(C)C)CN1CC2 [(2R,3R,11bR)-DHTBZ]
sedative effects [1]: lack the unwanted sedative effects | binding at dopamine receptors (dopamine receptors): negligible binding

COc1cc2c(cc1OC)C1CC(=O)C(CC(C)C)CN1CC2 (racemic) [TBZ racemate, 1,3,4,6,7,11b-hexahydro-9,10-dimethoxy-3-(2-methylpropyl)-2H-benzo[a]quinolizin-2-one]
side-effect: akathisia [2]: 9.5% | side-effect: depression [2]: 15.0% | side-effect: drowsiness [2]: 36.5% | side-effect: insomnia [2]: 11.0% | side-effect: nervousness or anxiety [2]: 10.3% | side-effect: parkinsonism [2]: 28.5% | bioavailability [3]: low and variable | less solubility compared to Form 2 crystalline (+)-TBZ ([4]; PBS with 0.2% w/v Tween 20): about 40% | solubility ([4]; aqueous with cosolvent or surfactant or cyclodextrin, thermodynamic from solid, read-out: Solubility): 36.4 µg/mL (≈ 115 µM) | half-life ([5]; liver microsomes, rat liver microsome, read-out: Half-life): 10.6 min

COc1cc2c(cc1OC)[C@H]1CC(=O)[C@H](CC(C)C)CN1CC2 [Form 2 crystalline (+)-TBZ, (3R,11bR)-tetrabenazine]
Response Angle ([6]; D50 15 μm): 45.3 ± 5.0 ° | Response Angle ([6]; D50 35 μm): 43.3 ± 2.5 ° | Response Angle ([6]; D50 50 μm): 36.7 ± 7.6 ° | Response Angle ([6]; D50 80 μm, more symmetric crystals): 34.7 ± 1.2 ° | Response Angle ([6]; D50 80 μm, more symmetric crystals, listed as more symmetric crystalline (+)-TBZ): about 35 ° | Response Angle ([6]; D50 125 μm): 35.3 ± 2.3 ° | Response Angle ([6]; Rod shape (80 μm)): 64.3 ± 1.2 ° | Response Angle ([6]; Rod shape (80 μm), listed as rod-shaped crystalline (+)-TBZ): about 64 ° | solubility [4]: 61.032 µg/mL (≈ 192 µM) | (+)-DHTBZ concentration in RLM ([5]; 0 min): 0 ng/mL | (+)-TBZ concentration in RLM ([5]; 0 min): 2056 ng/mL | (−)-DHTBZ concentration in RLM ([5]; 0 min): 0 ng/mL | (−)-TBZ concentration in RLM ([5]; 0 min): 0 ng/mL | (+)-DHTBZ concentration in RLM ([5]; 15 min): 455 ng/mL | (+)-TBZ concentration in RLM ([5]; 15 min): 881 ng/mL | (−)-DHTBZ concentration in RLM ([5]; 15 min): 0 ng/mL | (−)-TBZ concentration in RLM ([5]; 15 min): 0 ng/mL | (+)-DHTBZ concentration in RLM ([5]; 30 min): 608 ng/mL | (+)-TBZ concentration in RLM ([5]; 30 min): 366 ng/mL | (−)-DHTBZ concentration in RLM ([5]; 30 min): 0 ng/mL | (−)-TBZ concentration in RLM ([5]; 30 min): 0 ng/mL | (+)-DHTBZ concentration in RLM ([5]; 45 min): 616 ng/mL | (+)-TBZ concentration in RLM ([5]; 45 min): 122 ng/mL | (−)-DHTBZ concentration in RLM ([5]; 45 min): 0 ng/mL | (−)-TBZ concentration in RLM ([5]; 45 min): 0 ng/mL | (+)-DHTBZ concentration in RLM ([5]; 60 min): 627 ng/mL | (+)-TBZ concentration in RLM ([5]; 60 min): 42 ng/mL | (−)-DHTBZ concentration in RLM ([5]; 60 min): 0 ng/mL | (−)-TBZ concentration in RLM ([5]; 60 min): 0 ng/mL | amounts of therapeutically active VMAT2 inhibitors, (+)-TBZ and (+)-DHTBZ, generated in RLM versus racemate TBZ ([5]; rat liver microsome): comparable amounts | half-life ([5]; rat liver microsome): 10.6 min

COc1cc2c(cc1OC)[C@H]1C[C@H](O)[C@H](CC(C)C)CN1CC2 [(2S,3R,11bR)-DHTBZ]
sedative effects [1]: lack the unwanted sedative effects | binding at dopamine receptors (dopamine receptors): negligible binding
